Results from US11708391B2, “Rapaglutins, novel inhibitors of GLUT and use thereof” (The Johns Hopkins University, priority 2016, dated 2023).
Like-named read-outs stand apart in the source and are kept apart here.

Legend:
IL2 = IL2 reporter / IL-2 production in Jurkat T cells; type: cell-based
Excerpt: FIGS. 28A-28D. (a) A18 and E11 inhibit NFAT and A18, but not E11, stimulates SRE reporter gene signal. (b) E11 inhibits NFAT, NF-κB and IL2, but not MEF-2 or AP-1 pathways, in Jurkat T cells. (c) Glucose inhibitor stimulates SRE reporter gene signal.
Both A18 and E11 have shown immunosuppressive activity, blocking NFAT reporter gene activation and IL-2 production (see e.g., FIG. 28). As such, they can be used as immunosuppressive agents that have applications in treating organ transplantation rejection and all kinds of autoimmune diseases. […]

AMPK = experiment: Western blot, AMPK phosphorylation in HEK 293T; type: cell-based
Excerpt: (§1) FIGS. 7A-7B. (a) A18 activates AMPK and inhibits S6K in HEK 293T cells. […] (b) A18 and E11 activate AMPK and inhibit S6K in HEK 293T cells.
(§2) Whether A18 and E11 treatment affect key cell growth signaling proteins was examined next. […] But it has no effects on the phosphorylation of ERK, AKT or JNK (FIG. 7). As previously reported, AMPK is likely to act as the key link between the ATP reduction and the subsequent cancer cell inhibition. (FIGS. 7 and 23-25). Based on the data reported here, the working model for A18 and E11 was proposed as outlined in FIG. 8. […] These led to upregulation of phosphorylation of AMPK and downregulation of phosphorylation of S6K. […] (FIG. 8)

colon cancer RKO = experiment: alamar blue assay, RKO; type: cell-based, human
Excerpt: (§3) Dose-dependent inhibition of cell proliferation by A18 and E11 was next evaluated in several other human cancer cell lines, including breast cancer HCC1954, pancreatic cancer PANC10.05, leukemia Jurkat T and colon cancer RKO (FIGS. 1b and 1c). […] (FIGS. 1 and 9; Table 3)

leukemia Jurkat T = experiment: alamar blue assay, Jurkat T; type: cell-based, human
Excerpt: as §3

mTOR = experiment: Western blot, mTOR / S6K in HEK 293T; type: cell-based
Excerpt: as §1, §2

HEK 293T FLAG-Glut1 = experiment: alamar blue assay, HEK 293T Glut1 overexpression cells; type: cell-based; settings: for IC50: HEK 293T FLAG-Glut1
Excerpt: FIGS. 20A-20C. E11 is a specific inhibitor of Glut1. (a) Glut1 and Glut3 protein levels of wild type, Glut1 and Glut3 overexpression cells analyzed by western blotting. (b)(c) Inhibition of cell proliferation in HEK293T, Glut1 and Glut3 overexpression cells by A18 and E11.
(§4) Up to now, at least 14 different isoforms of GLUTs have been identified in human cells. It was then asked whether A18 and E11 are specific inhibitors of GLUT1. To answer this question, colon cancer DLD-1 wild type and GLUT1 gene knock out cell lines were chosen as a cell model (FIG. 4a). […] GLUTs that are most relevant to cancer are Glut1 and Glut3. To obtain additional evidence, Glut1 and Glut3 in HEK 293T cells were overexpressed and an alamar blue cell viability assay was performed again. […] (see FIGS. 4, 19, 20, 26; Table 4).

GLUT1 = target: T1, GLUT1 (Homo sapiens, UniProt P11166); experiment: pulldown with biotin-rapafucin conjugates from RBC-derived ghosts lysate, anti-GLUT1 Western blot; type: binding; settings: for binding to GLUT1 in pulldown assay: RBC-derived ghosts cell lysate, Western blot; for competition of the binding of the other rapafucin's probe to GLUT1: pulldown, A18 probe versus E11 and vice versa
T1 construct: endogenous in cells; host or cells: erythrocyte (RBC-derived) ghosts
T1 sequence (P11166 1-492): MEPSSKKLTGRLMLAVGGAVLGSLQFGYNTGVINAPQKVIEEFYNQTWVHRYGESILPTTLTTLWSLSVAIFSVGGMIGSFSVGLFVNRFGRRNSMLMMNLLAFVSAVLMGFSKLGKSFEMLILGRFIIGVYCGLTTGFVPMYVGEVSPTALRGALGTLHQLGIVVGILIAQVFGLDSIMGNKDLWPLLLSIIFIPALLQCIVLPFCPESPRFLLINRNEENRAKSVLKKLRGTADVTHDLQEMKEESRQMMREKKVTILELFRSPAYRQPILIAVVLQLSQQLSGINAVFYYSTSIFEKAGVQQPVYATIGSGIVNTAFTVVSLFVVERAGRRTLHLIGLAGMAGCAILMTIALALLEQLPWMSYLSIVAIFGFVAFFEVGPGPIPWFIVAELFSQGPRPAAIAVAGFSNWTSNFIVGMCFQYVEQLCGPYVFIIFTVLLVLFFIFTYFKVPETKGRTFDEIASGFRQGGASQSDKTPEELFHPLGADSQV
Excerpt: FIGS. 6A-6B. Identification of direct interaction of A18 and E11 to Glut1. Glut1 protein levels of A18 (a) or E11 (b) pull down samples analyzed by western blotting.
After showing that GLUT1 was very likely to be the target of A18 and E11, the direct interaction of A18 and E11 to GLUT1 was then examined. A series of biotin or diazrine-alkyne rapafucin conjugates through different positions were synthesized. […] Importantly, the binding of the biotin-rapafucin probe to GLUT1 is competed by rapafucin. […] (FIGS. 6, 21, 22 and 27)

DLD-1 wild type = experiment: 2-deoxy-D-[3H] glucose uptake in DLD-1 wild type cells; type: cell-based
Excerpt: (§5) FIGS. 4A-4B. E11 is a specific inhibitor of Glut1. (a) Glut1 protein levels of DLD-1 wild type and knock out cells analyzed by western blotting. (b) Inhibition of 2-deoxy-D-[3H] glucose uptake in DLD-1 wild type and knock out cells by E11 or A18.
as §4

[1] = test system: pancreatic cancer PANC10.05; experiment: alamar blue assay, PANC10.05; type: cell-based, human; settings: PANC 10.05
Excerpt: as §3

HEK 293T = experiment: flow cytometric cell cycle analysis in HEK 293T; type: cell-based; settings: 5 μM, 24 h
Protocol: FIGS. 25A-25C. A18 and E11 inhibit cell cycle progression in the S phase. HEK 293T were incubated with DMSO (a), 5 μM A18 (b) or 5 μM E11 (c) for 24 h before they were harvested for cell cycle analysis.

breast cancer HCC1954 = experiment: alamar blue assay, HCC1954; type: cell-based, human
Excerpt: as §3

[2] = test system: DLD-1 GLUT1 gene knock out cells; experiment: alamar blue cell viability assay, DLD-1 GLUT1 knock out; type: cell-based
Excerpt: FIGS. 19A-19C. E11 is a specific inhibitor of Glut1. (a)(b) Inhibition of cell proliferation in A549, DLD-1 wild type and Glut1 knock out cells by A18 and E11. (c) Potency of A18 and E11 against the alamar blue assay in A549, DLD-1 wild type and Glut1 knock out cells.
as §4

HeLa = experiment: alamar blue assay, HeLa; type: cell-based
Excerpt: as §3

[3] = test system: DLD-1 GLUT1 gene knock out cells; experiment: 2-deoxy-D-[3H] glucose uptake in DLD-1 GLUT1 knock out cells; type: cell-based
Excerpt: as §5, §4

| Compound | IL-2 production (IL2) | phosphorylation of AMPK (AMPK) | mTOR inhibition (S6K) (mTOR) | binding to GLUT1 in pulldown assay (GLUT1) | competition of the binding of the other rapafucin's probe to GLUT1 (GLUT1) | inhibition of 2-deoxy-D-glucose uptake (DLD-1 wild type) | additional cells in S phase (HEK 293T) | inhibition of cell proliferation, alamar blue [2] | inhibition of 2-deoxy-D-glucose uptake [3] | other results |
| --- | --- | --- | --- | --- | --- | --- | --- | --- | --- | --- |
| CC[C@@H](C)[C@H]1C(=O)NCC(=O)N(C)CC/C=C/C(=O)OCC(C)(C)C(=O)C(=O)N2CCCC[C@H]2C(=O)O[C@H](CCc2ccc(OC)c(OC)c2)c2cccc(c2)NC(=O)CCC(=O)N(C)[C@@H](CC(C)C)C(=O)N[C@H](Cc2ccccc2)C(=O)N1C [A18] | blocking | inducing phosphorylation of AMPK | mTOR inhibition | can bind directly to GLUT1 | vice versa | strongly inhibited | approximately 10% | strongly inhibited | strongly inhibited | IC50 (colon cancer RKO; Homo sapiens): 114 nM; IC50 (leukemia Jurkat T; Homo sapiens): 132 nM; IC50 (HEK 293T FLAG-Glut1; Homo sapiens): 573 nM; IC50 ([1]; Homo sapiens, Panc1005): 119 nM; IC50 (breast cancer HCC1954; Homo sapiens): 109 nM; IC50 (HeLa; Homo sapiens): 281 nM |
| Gly-^MSerBu-Nal-^MAla [E11] | blocking | inducing phosphorylation of AMPK | mTOR inhibition | can bind directly to GLUT1 | cannot be competed | kept inhibitory activity | approximately 10% | didn't show any inhibition | didn't show any inhibition | IL2 pathway (IL2; Jurkat T cells): inhibits; IC50 (colon cancer RKO): 714 nM; IC50 (leukemia Jurkat T): 251 nM; inhibition in alamar blue cell viability assay (HEK 293T FLAG-Glut1; GLUT1 overexpression HEK 293T cells): kept partial inhibitory activity; IC50 (HEK 293T FLAG-Glut1): 658 nM; IC50 [1]: 79.8 nM; IC50 (breast cancer HCC1954): 159 nM; IC50 (HeLa): 383 nM |
